Experimental data: ChEMBL document CHEMBL3232948 (J Med Chem, 2014)
pIC50: −log10 of the molar value. Active and inactive are the calls of the source. The calls are words filed in the database; no cut-off is given here.

How the values were obtained:
Neuraminidase [1] = biological target: T1, Neuraminidase (Influenza A virus, UniProt B4URF0); parameters: species or system Influenza A virus (A/California/04/2009(H1N1))
Neuraminidase [2] = biological target: T1, Neuraminidase; parameters: species or system Influenza A virus (A/Anhui/1/2005(H5N1))
[3] = biological target: Neuraminidase (Influenza A virus) (UniProt B4URF0); assay: Inhibition of Influenza A virus (A/California/04/2009(H1N1)) wild-type neuraminidase using MU-NANA as substrate at 1000 nM after 1 hr
Neuraminidase [4] = biological target: T1, Neuraminidase; assay: Inhibition of Influenza A virus SN33 H1N1 neuraminidase using MU-NANA as substrate after 1 hr by spectrofluorometric analysis

Sequence of Neuraminidase (Influenza A virus) (B4URF0 as listed by the source): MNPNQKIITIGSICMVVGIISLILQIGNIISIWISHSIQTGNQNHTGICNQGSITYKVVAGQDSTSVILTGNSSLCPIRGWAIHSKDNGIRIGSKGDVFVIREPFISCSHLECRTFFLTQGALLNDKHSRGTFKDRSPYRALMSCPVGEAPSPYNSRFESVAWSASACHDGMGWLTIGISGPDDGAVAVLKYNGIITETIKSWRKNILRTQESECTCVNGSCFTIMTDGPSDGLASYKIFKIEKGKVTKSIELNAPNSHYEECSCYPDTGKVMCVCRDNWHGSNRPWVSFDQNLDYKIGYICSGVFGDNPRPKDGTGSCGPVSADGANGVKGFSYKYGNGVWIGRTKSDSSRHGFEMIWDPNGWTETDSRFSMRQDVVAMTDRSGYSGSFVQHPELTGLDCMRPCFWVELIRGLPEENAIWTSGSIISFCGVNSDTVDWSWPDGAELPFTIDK
T1 sequence (B4URF0 whole entry): as the sequence (B4URF0 as listed by the source) above

SMILES	inhibition [3]	other results
CCC(CC)O[C@@H]1C=C(C(=O)O)C[C@H](N/C(N)=N/C)[C@H]1NC(C)=O	–	pIC50 (Neuraminidase [1]): 8.76; pIC50 (Neuraminidase [2]): 8.44
CCC(CC)O[C@@H]1C=C(C(=O)O)C[C@H](N/C(N)=N/C(C)C)[C@H]1NC(C)=O	inactive	–
CC/N=C(\N)N[C@H]1CC(C(=O)O)=C[C@@H](OC(CC)CC)[C@@H]1NC(C)=O	inactive	–
CCC(CC)O[C@@H]1C=C(C(=O)O)C[C@H](N/C(N)=N/C2CC2)[C@H]1NC(C)=O	inactive	–
CCC(CC)O[C@@H]1C=C(C(=O)O)C[C@H](N/C(N)=N/CC(F)(F)F)[C@H]1NC(C)=O	inactive	–
CCC(CC)O[C@@H]1C=C(C(=O)O)C[C@H](N/C(N)=N/O)[C@H]1NC(C)=O	–	pIC50 (Neuraminidase [1]): 8.43; pIC50 (Neuraminidase [2]): 7.48
CCC/N=C(\N)N[C@H]1CC(C(=O)O)=C[C@@H](OC(CC)CC)[C@@H]1NC(C)=O	inactive	–
C=CC/N=C(\N)N[C@H]1CC(C(=O)O)=C[C@@H](OC(CC)CC)[C@@H]1NC(C)=O	inactive	–
CC(=O)N[C@H]1C([C@H](O)[C@H](O)CO)OC(C(=O)O)=C[C@@H]1NC(=N)NC(=O)CSc1ccc2ccccc2c1 (stereo partly specified)	–	pIC50 (Neuraminidase [4]): 7.70
